Test results published in paper PMC7253369, “Cellular and Structural Basis of Synthesis of the Unique Intermediate Dehydro-F420-0 in Mycobacteria” (mSystems, 2020).

Assays:
[1] = molecular target: T1, FbiA (Mycolicibacterium smegmatis, UniProt A0QTG2); assay: X-ray crystal structure, crystal soaking; assay type: binding; details: pH 8.5, 20% glycerol
T1 construct: expressed in M. smegmatis mc^2155 (homologous host); homodimer
T1 sequence (A0QTG2 1-327): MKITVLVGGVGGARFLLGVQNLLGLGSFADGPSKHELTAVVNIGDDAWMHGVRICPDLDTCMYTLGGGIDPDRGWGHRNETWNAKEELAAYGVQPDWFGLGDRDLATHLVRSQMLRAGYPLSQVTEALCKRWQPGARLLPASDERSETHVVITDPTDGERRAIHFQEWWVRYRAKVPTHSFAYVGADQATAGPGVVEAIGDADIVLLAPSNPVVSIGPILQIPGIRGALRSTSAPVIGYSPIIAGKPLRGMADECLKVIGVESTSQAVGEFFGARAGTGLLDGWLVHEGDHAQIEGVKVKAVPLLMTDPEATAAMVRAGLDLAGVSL

[2] = molecular target: T1, FbiA; assay: X-ray crystal structure, crystal soaking; co-purification with LC-MS; assay type: binding; details: pH 8.5, 20% glycerol; no metal seen; active site of Mol. B; carbonyl part poorly resolved
[3] = molecular target: the molecule itself; assay: SEC-MALS; Superdex S200 Increase 10/300 in 200 mM NaCl, 50 mM Tris pH 7.9; purified FbiA; MALS detection (Wyatt)

O=c1nc2n(C[C@H](O)[C@H](O)[C@H](O)CO)c3cc(O)ccc3cc-2c(=O)[nH]1 [Fo] was tested, and the “X-ray crystal structure, crystal soaking” value ([1]; Fo alone (no metal seen) and with GDP and Ca2+, active site of Mol. B) was “FbiA plus Fo, 6UW1; FbiA plus GDP, 6UW3; FbiA plus GDP plus Fo, 6UW5”.

C=C(OP(=O)(O)OC[C@@H](O)[C@@H](O)[C@@H](O)Cn1c2nc(=O)[nH]c(=O)c-2cc2ccc(O)cc21)C(=O)O [DH-F420-0] was tested, and the “X-ray crystal structure, crystal soaking; co-purification with LC-MS” value [2] was “FbiA plus DH-F420-0, 6UW7”.

With Nc1nc2c(ncn2[C@@H]2O[C@H](COP(=O)(O)OP(=O)(O)O)[C@@H](O)[C@H]2O)c(=O)[nH]1 [GDP] the “X-ray crystal structure, crystal soaking” value ([1]; GDP alone and with Fo, active-site Ca2+ in Mol. B, in place of unstable EPPG) was “FbiA plus GDP, 6UW3; FbiA plus GDP plus Fo, 6UW5”.

B1: FbiA from M. smegmatis (enzyme)
chain: T1 sequence (A0QTG2 1-327)
notes: FbiA (phosphotransferase that makes dehydro-F420-0; homologous to CofD) from Mycobacterium smegmatis, gene MSMEG_1830; Copurifies with its product DH-F420-0 and some mature F420 (small molecules); also called MSMEG_1830; Mol. A; source: M. smegmatis mc2155, pMyNT vector, acetamide-induced, purified (Ni2+ agarose, SEC, TEV cleavage); not shown: His6, N-terminal, cleaved
B1 was tested, and the “stoichiometry N” value [3] was 2.
